From patent US12077503B2, “Substituted cyclic amides and their use as herbicides” (FMC CORPORATION, priority 2015, dated 2024)

What was measured:
Assay type in all cases: in vivo
Kochia (Kochia scoparia) [1] = assay: Test A preemergence; conditions: Bassia scoparia, pre-emergence, 240 h, preemergence, read-out: Plant response rating, Kochia
How it was run: (§1)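 Compounds were formulated in a non-phytotoxic solvent mixture with surfactant and applied as a preemergence directed soil spray after seeding, or sprayed postemergence over plants 2 to 10 cm tall at the one- to two-leaf stage. Evaluation after about 10 d compared treated with untreated controls, using a scale from 0 (no effect) to 100 (complete control).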

[2] = test system: barnyardgrass (Echinochloa crus-galli); assay: Test A preemergence; conditions: Echinochloa crus-galli, pre-emergence, 240 h, preemergence, read-out: Plant response rating, Barnyardgrass
How it was run: as §1

[3] = test system: giant foxtail (Setaria faberii); assay: Test A preemergence; conditions: Setaria faberi, pre-emergence, 240 h, preemergence, read-out: Plant response rating, Foxtail, Giant
How it was run: as §1

[4] = test system: pigweed (Amaranthus retroflexus); assay: Test A preemergence; conditions: Amaranthus retroflexus, pre-emergence, 240 h, preemergence, read-out: Plant response rating, Pigweed
[5] = test system: ragweed (common ragweed, Ambrosia elatior); assay: Test A preemergence; conditions: Ambrosia artemisiifolia, pre-emergence, 240 h, preemergence, read-out: Plant response rating, Ragweed
How it was run: as §1

[6] = test system: ryegrass, Italian (Italian ryegrass, Lolium multiflorum); assay: Test A preemergence; conditions: Lolium multiflorum, pre-emergence, 240 h, 125 g ai/ha, preemergence; visual rating after approx. 10 d; 0 to 100 scale where 0 is no effect and 100 is complete control; read-out: Plant response rating, Ryegrass, Italian
How it was run: as §1

[7] = test system: Galium (catchweed bedstraw, Galium aparine); assay: Test A postemergence; conditions: Galium, post-emergence, 240 h, 125 g ai/ha, postemergence; visual injury after approximately 10 d; 0 to 100 scale (0 no effect, 100 complete control); read-out: Plant response rating, Galium
How it was run: as §1

Kochia (Kochia scoparia) [8] = assay: Test A postemergence; conditions: Bassia scoparia, post-emergence, 240 h, 125 g ai/ha, postemergence; visual injury after approximately 10 d; 0 to 100 scale (0 no effect, 100 complete control); read-out: Plant response rating, Kochia
How it was run: as §1

[9] = test system: barnyardgrass (Echinochloa crus-galli); assay: Test A postemergence; conditions: Echinochloa crus-galli, post-emergence, 240 h, 125 g ai/ha, postemergence; visual injury after approximately 10 d; 0 to 100 scale (0 no effect, 100 complete control); read-out: Plant response rating, Barnyardgrass
How it was run: as §1

[10] = test system: blackgrass (Alopecurus myosuroides); assay: Test A postemergence; conditions: Alopecurus myosuroides, post-emergence, 240 h, 125 g ai/ha, postemergence; visual injury after approximately 10 d; 0 to 100 scale (0 no effect, 100 complete control); read-out: Plant response rating, Blackgrass
How it was run: as §1

corn (Zea mays) = assay: Test A postemergence; conditions: Zea mays, post-emergence, 240 h, 125 g ai/ha, postemergence; visual injury after approximately 10 d; 0 to 100 scale (0 no effect, 100 complete control)
How it was run: as §1

[11] = test system: giant foxtail (Setaria faberii); assay: Test A postemergence; conditions: Setaria faberi, post-emergence, 240 h, 125 g ai/ha, postemergence; visual injury after approximately 10 d; 0 to 100 scale (0 no effect, 100 complete control); read-out: Plant response rating, Foxtail, Giant
How it was run: as §1

[12] = test system: pigweed (Amaranthus retroflexus); assay: Test A postemergence; conditions: Amaranthus retroflexus, post-emergence, 240 h, 125 g ai/ha, postemergence; visual injury after approximately 10 d; 0 to 100 scale (0 no effect, 100 complete control); read-out: Plant response rating, Pigweed
How it was run: as §1

[13] = test system: ragweed (common ragweed, Ambrosia elatior); assay: Test A postemergence; conditions: Ambrosia artemisiifolia, post-emergence, 240 h, 125 g ai/ha, postemergence; visual injury after approximately 10 d; 0 to 100 scale (0 no effect, 100 complete control); read-out: Plant response rating, Ragweed
How it was run: as §1

[14] = test system: ryegrass, Italian (Italian ryegrass, Lolium multiflorum); assay: Test A postemergence; conditions: Lolium multiflorum, post-emergence, 240 h, 125 g ai/ha, postemergence; visual injury after approximately 10 d; 0 to 100 scale (0 no effect, 100 complete control); read-out: Plant response rating, Ryegrass, Italian
How it was run: as §1

[15] = test system: wheat (Triticum aestivum); assay: Test A postemergence; conditions: Triticum aestivum, post-emergence, 240 h, 125 g ai/ha, postemergence; visual injury after approximately 10 d; 0 to 100 scale (0 no effect, 100 complete control); read-out: Plant response rating, Wheat
How it was run: as §1

[16] = 125 g ai/ha, visual rating after approx. 10 d, 0 to 100 scale where 0 is no effect and 100 is complete control
[17] = 500 g ai/ha, 0 to 100 scale, 0 = no effect, 100 = complete control

CN1C[C@H](c2cc(F)cc(F)c2)[C@@H](C(=O)Nc2c(F)cccc2F)C1=O [Compound 759]
90%: pest or weed control at 125 g/ha [2, 16]
70%: pest or weed control at 125 g/ha [3, 16] | pest or weed control at 125 g/ha [9]
20%: pest or weed control at 500 g/ha (Kochia (Kochia scoparia) [1]; [17]) | pest or weed control at 125 g/ha [11]
0%: pest or weed control at 125 g/ha (Kochia (Kochia scoparia) [1]; [16]) | pest or weed control at 125 g/ha [4, 16] | pest or weed control at 500 g/ha [4, 17] | pest or weed control at 125 g/ha [5, 16] | pest or weed control at 500 g/ha [5, 17] | pest or weed control at 125 g/ha [6] | pest or weed control at 125 g/ha [7] | pest or weed control at 125 g/ha (Kochia (Kochia scoparia) [8]) | pest or weed control at 125 g/ha [10] | Corn plant response rating (crop injury, 0 = no effect, 100 = complete kill) at 125 g/ha (corn (Zea mays)) | pest or weed control at 125 g/ha [12] | pest or weed control at 125 g/ha [13] | pest or weed control at 125 g/ha [14] | plant injury at 125 g/ha [15]
100%: pest or weed control at 500 g/ha [2, 17] | pest or weed control at 500 g/ha [3, 17]
